Reference: ChEMBL document CHEMBL5291721, “A preclinical secondary pharmacology resource illuminates target-adverse drug reaction associations of marketed drugs” (Nat Commun, 2023)

Columns and labels:
Bile salt export pump = Bile salt export pump (Homo sapiens, UniProt O95342); type: functional
Adenosine receptor A3 = target: T1, Adenosine receptor A3 (Homo sapiens, UniProt P0DMS8)
T1 sequence (P0DMS8 whole entry): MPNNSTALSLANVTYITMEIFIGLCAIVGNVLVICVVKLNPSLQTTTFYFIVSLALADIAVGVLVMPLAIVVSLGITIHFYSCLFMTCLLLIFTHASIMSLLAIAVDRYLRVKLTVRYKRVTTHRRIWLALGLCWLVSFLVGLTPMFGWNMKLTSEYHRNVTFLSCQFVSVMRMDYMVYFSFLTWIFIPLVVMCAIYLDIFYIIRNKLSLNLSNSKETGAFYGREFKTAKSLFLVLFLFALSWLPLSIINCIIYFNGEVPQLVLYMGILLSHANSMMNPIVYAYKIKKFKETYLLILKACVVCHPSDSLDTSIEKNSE

[1] = target: T2, Alpha-2C adrenergic receptor (Homo sapiens, UniProt P18825); type: functional
T2 sequence (P18825 whole entry): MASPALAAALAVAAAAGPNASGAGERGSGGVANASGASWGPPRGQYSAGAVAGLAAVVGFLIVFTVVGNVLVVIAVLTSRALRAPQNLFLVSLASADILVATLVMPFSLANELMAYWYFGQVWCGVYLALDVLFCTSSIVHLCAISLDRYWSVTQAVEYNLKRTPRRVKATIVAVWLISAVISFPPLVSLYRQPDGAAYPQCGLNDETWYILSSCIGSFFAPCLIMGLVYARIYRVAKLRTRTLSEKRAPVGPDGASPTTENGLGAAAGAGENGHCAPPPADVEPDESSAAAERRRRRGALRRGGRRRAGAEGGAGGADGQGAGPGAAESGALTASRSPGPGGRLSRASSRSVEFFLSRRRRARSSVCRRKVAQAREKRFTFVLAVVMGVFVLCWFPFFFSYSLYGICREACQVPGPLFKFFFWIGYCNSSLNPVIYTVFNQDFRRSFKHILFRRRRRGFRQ

[2] = target: T3, Type-1 angiotensin II receptor (Homo sapiens, UniProt P30556)
T3 sequence (P30556 whole entry): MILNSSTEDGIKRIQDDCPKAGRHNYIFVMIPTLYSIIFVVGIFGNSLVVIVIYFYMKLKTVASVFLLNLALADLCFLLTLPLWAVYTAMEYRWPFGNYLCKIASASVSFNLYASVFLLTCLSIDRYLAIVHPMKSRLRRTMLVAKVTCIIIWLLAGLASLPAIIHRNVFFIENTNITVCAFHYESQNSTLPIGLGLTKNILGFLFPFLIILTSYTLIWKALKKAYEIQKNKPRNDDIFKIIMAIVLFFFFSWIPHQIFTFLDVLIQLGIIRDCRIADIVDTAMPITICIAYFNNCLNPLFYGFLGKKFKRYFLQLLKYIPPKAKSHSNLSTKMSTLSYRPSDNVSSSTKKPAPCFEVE

[3] = target: Neuronal acetylcholine receptor subunit alpha-4 (Homo sapiens, UniProt P43681)
[4] = target: 5-hydroxytryptamine receptor 2B (Homo sapiens, UniProt P41595); type: functional, cell-based
[5] = target: T4, 5-hydroxytryptamine receptor 3A (Homo sapiens, UniProt P46098); type: functional
T4 sequence (P46098 whole entry): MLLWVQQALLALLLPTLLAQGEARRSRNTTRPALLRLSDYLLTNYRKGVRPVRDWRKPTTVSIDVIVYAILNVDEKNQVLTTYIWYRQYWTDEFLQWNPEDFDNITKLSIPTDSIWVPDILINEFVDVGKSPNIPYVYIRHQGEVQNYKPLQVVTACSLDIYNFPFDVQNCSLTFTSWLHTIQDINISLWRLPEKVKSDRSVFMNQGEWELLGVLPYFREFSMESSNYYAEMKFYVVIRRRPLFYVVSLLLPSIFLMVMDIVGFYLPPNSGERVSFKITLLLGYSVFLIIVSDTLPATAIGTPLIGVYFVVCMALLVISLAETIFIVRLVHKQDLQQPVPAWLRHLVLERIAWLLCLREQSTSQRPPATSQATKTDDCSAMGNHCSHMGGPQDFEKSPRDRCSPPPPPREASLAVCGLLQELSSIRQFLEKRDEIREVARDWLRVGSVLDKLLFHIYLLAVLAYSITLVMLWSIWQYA

Motilin receptor = Motilin receptor (Homo sapiens, UniProt O43193)
[6] = target: Delta-type opioid receptor (Homo sapiens, UniProt P41143)
[7] = target: 3',5'-cyclic-AMP phosphodiesterase 4D (Homo sapiens, UniProt Q08499); type: functional
[8] = target: Sodium-dependent noradrenaline transporter (Homo sapiens, UniProt P23975)
[9] = target: T5, Amine oxidase [flavin-containing] A (Homo sapiens, UniProt P21397); type: functional
T5 sequence (P21397 whole entry): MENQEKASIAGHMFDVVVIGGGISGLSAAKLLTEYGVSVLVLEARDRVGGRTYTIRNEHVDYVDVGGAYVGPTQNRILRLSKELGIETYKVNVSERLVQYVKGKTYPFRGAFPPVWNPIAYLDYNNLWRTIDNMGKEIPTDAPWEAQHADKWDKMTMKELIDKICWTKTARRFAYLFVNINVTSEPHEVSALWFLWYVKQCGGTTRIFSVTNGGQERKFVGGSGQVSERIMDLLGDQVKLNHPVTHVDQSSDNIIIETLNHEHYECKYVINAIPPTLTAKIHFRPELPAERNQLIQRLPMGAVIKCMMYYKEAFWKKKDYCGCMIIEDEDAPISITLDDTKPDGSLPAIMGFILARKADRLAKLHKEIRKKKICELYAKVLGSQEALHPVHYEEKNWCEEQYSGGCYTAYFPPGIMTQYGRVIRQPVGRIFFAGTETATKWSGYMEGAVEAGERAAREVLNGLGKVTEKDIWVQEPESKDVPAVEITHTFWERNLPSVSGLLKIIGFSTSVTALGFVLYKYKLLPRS

[10] = target: cGMP-inhibited 3',5'-cyclic phosphodiesterase 3A (Homo sapiens, UniProt Q14432); type: functional
D(3) dopamine receptor = D(3) dopamine receptor (Homo sapiens, UniProt P35462)
Further: assay procedure not described here.

Neuronal acetylcholine receptor subunit alpha-4, sequence (P43681 whole entry): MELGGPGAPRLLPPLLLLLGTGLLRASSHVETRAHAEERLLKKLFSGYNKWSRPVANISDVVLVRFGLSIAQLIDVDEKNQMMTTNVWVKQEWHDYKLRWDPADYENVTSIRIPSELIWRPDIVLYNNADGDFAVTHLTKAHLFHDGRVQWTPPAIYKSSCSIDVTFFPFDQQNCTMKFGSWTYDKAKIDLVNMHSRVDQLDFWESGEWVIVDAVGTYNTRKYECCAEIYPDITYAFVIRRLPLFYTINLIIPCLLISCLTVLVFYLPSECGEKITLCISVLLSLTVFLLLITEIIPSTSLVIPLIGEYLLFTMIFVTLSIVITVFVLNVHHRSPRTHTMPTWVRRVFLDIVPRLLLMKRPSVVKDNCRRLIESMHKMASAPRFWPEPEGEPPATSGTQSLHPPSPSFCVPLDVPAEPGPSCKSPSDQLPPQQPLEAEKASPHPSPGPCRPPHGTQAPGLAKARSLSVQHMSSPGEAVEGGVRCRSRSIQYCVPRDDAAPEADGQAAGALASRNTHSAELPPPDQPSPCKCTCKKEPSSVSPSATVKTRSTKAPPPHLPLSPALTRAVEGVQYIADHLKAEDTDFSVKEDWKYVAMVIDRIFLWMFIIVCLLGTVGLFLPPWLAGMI
5-hydroxytryptamine receptor 2B, sequence (P41595 whole entry): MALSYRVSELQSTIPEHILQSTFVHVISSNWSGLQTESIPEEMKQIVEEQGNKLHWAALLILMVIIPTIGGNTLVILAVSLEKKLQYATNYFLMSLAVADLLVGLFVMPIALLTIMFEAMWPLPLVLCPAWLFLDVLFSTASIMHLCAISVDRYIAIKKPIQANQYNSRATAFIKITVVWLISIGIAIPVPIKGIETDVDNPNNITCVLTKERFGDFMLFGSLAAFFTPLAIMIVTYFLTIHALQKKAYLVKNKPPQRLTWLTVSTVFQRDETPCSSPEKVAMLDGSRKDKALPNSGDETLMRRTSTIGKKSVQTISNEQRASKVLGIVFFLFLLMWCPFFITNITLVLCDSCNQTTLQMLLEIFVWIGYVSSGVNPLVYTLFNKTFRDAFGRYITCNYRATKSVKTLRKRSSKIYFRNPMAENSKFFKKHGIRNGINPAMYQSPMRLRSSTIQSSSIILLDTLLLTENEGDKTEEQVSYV
Motilin receptor, sequence (O43193 whole entry): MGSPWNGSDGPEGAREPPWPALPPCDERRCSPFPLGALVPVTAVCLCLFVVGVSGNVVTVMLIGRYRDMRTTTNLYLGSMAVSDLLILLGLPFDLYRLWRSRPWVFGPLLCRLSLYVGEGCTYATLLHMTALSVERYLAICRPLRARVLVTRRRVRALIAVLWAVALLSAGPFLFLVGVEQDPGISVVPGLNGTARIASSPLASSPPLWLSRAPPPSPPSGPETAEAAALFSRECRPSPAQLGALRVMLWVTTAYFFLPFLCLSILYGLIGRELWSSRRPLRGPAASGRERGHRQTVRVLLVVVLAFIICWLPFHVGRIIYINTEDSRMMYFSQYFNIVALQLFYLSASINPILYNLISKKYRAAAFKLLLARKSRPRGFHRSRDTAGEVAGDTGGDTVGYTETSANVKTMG
Bile salt export pump, sequence (O95342 whole entry): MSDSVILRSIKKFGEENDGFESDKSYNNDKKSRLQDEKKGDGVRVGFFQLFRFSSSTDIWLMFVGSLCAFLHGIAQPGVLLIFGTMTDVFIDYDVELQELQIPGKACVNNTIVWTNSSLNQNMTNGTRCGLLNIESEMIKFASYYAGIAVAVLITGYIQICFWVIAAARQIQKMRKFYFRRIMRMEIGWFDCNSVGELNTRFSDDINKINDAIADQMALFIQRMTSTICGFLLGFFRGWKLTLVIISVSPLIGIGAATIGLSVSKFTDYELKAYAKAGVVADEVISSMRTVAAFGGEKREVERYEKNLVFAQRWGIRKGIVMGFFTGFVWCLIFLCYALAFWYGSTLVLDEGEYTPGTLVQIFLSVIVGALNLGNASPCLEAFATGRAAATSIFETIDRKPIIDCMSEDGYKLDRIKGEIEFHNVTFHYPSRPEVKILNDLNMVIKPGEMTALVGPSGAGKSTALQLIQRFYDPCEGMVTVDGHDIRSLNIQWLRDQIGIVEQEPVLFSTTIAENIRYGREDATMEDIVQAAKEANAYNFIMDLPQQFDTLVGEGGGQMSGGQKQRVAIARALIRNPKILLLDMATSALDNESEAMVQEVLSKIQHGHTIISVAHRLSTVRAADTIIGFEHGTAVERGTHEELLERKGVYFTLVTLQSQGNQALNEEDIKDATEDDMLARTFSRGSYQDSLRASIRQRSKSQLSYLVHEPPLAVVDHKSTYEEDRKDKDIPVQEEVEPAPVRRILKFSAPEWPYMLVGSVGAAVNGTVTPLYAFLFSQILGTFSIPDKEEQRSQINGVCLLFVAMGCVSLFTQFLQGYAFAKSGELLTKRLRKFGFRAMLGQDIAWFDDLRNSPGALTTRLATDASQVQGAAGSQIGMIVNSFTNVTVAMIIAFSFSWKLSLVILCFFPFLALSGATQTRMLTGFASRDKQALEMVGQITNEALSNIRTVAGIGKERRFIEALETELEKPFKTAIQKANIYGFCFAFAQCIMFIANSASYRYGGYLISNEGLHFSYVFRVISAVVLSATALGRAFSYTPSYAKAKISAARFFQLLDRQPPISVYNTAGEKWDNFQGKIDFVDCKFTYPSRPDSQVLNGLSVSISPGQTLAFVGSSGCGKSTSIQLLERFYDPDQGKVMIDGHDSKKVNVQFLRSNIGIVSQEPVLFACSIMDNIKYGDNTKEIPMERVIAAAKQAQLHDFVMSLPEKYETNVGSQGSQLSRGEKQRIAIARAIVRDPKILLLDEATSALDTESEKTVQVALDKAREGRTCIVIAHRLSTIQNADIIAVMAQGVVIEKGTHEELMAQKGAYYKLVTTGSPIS
Delta-type opioid receptor, sequence (P41143 whole entry): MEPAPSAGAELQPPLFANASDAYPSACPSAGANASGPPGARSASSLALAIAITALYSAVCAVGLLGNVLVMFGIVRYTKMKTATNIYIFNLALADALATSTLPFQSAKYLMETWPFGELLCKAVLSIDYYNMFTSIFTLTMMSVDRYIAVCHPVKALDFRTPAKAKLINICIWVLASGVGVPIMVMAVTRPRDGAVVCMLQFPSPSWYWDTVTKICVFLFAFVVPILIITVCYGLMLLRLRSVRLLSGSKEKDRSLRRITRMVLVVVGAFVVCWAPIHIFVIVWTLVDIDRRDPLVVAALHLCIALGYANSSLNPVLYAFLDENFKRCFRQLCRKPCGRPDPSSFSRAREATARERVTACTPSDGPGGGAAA
D(3) dopamine receptor, sequence (P35462 whole entry): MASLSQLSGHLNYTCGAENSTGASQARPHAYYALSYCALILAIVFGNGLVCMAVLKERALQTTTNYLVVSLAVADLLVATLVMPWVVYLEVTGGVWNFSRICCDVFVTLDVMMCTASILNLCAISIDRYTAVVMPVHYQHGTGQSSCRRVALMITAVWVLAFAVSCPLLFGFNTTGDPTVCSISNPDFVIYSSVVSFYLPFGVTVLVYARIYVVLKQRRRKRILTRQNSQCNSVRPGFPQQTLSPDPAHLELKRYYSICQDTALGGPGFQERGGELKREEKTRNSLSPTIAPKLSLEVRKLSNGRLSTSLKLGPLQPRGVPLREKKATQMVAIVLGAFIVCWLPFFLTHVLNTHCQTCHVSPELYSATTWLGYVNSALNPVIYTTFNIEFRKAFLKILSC
cGMP-inhibited 3',5'-cyclic phosphodiesterase 3A, sequence (Q14432 whole entry): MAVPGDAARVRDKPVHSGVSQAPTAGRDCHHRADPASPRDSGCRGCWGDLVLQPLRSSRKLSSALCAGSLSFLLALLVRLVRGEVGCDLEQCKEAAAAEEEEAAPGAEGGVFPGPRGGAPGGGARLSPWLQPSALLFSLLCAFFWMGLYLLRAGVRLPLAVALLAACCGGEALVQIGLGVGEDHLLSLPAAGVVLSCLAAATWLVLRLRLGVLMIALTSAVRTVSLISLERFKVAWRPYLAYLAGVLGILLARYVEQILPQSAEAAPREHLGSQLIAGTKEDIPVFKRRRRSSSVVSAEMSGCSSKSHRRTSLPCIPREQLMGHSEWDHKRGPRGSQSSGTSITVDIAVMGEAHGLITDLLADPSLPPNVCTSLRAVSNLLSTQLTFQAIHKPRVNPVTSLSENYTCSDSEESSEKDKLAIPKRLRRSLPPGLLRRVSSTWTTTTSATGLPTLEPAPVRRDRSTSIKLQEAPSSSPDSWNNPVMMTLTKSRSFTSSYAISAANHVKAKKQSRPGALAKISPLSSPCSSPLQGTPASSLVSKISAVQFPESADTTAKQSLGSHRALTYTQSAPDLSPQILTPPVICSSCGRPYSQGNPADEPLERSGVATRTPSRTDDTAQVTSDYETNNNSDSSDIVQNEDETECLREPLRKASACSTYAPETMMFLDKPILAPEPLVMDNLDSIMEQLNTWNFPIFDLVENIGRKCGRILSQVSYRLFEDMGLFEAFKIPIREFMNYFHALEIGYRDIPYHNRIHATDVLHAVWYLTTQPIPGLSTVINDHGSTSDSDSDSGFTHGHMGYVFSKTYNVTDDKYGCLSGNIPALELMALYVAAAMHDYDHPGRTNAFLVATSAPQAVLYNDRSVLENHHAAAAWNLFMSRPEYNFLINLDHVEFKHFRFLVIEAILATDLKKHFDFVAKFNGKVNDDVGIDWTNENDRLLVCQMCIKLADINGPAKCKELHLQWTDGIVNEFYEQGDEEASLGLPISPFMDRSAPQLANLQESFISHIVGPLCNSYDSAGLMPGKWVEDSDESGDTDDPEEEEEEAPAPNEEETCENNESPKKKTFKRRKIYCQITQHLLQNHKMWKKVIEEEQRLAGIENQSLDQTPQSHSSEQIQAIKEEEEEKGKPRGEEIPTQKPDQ

Structure (SMILES): O=C1[C@@H]2[C@H]3CC[C@H](C3)[C@@H]2C(=O)N1C[C@@H]1CCCC[C@H]1CN1CCN(c2nsc3ccccc23)CC1 [LURASIDONE]
- AC50 (Bile salt export pump): 13 µM
- AC50 (Adenosine receptor A3): 9.9 µM
- AC50 [1]: 1100 nM
- AC50 [2]: > 30 µM
- AC50 [3]: > 10 µM
- AC50 [4]: > 30 µM
- AC50 [5]: > 30 µM
- AC50 (Motilin receptor): > 30 µM
- AC50 [6]: > 30 µM
- AC50 [7]: > 30 µM
- AC50 [8]: > 30 µM
- AC50 [9]: > 30 µM
- AC50 [10]: > 30 µM
- AC50 (D(3) dopamine receptor): 430 nM

Structure (SMILES): Cn1cnc2c(F)c(Nc3ccc(Br)cc3F)c(C(=O)NOCCO)cc21 [BINIMETINIB]
- AC50 (Bile salt export pump): 87 µM
- AC50 (Adenosine receptor A3): > 30 µM
- AC50 [1]: > 30000 nM
- AC50 [2]: > 30 µM
- AC50 [3]: > 30 µM
- AC50 [4]: > 30 µM
- AC50 [5]: > 30 µM
- AC50 (Motilin receptor): > 30 µM
- AC50 [6]: > 30 µM
- AC50 [7]: > 30 µM
- AC50 [8]: > 30 µM
- AC50 [9]: > 30 µM
- AC50 [10]: > 30 µM
- AC50 (D(3) dopamine receptor): > 30000 nM
